From patent US9114149B2, “[CU(thp)4]n[X]-n compounds for the treatment of a broad range of human solid tumors, including refractory tumors” (Universita Degli Studi Di Padova, priority 2011, dated 2015)
Where “and” joins values, the source holds several entries; their conditions need not be identical. Equal values may be shown once. Marks after values point to notes of the source that are not given here.

Columns and labels:
[1] = system: BxPC-3; assay: MTT cytotoxicity, BxPC-3 (pancreas); format: cell-based, human; conditions: MTT test, 72 hrs
Description: (§1) The in vitro antitumor activity of CP had been deeply evaluated in several human cancer cell lines by in vitro cytotoxicity assays. CP cytotoxicity has been detected in a large panel of human cell lines derived from a wide variety of solid tumors, including refractory tumors. In Table 1, the cytotoxicity parameters IC50 (that is the median growth inhibitory concentrations calculated from dose-survival curves via MTT test) are tabulated.
(§2) Cell lines representative of lung (H157, U1810, U1285, Calu-1), pancreas (MIA PaCa-2, BxPC-3, AsPC-1, Capan-1), liver (Huh-7, Hep 3B, SK-Hep-1), oesophagus (OE33, OE21), oesophagus/gastric cardia (OE19), stomach (BGC-823, AGS), colon (HCT-116, T84, COLO 205), breast (MDA-MB-231, SK-BR-3), cervix (CaSki, C-33 A) ovarian (A2780, SK-OV-3, IGROV1), prostate (LnCaP, PC-3) cancers along with melanoma (MEWO, G361, C-32), neuroblastoma (SH-SY5Y, SK-N-AS, IMR-32) and osteosarcoma (U-2 OS, MG-63) have been treated with increasing concentration of CP for 72 hrs.

[2] = system: Capan-1; assay: MTT cytotoxicity, Capan-1 (pancreas); format: cell-based, human; conditions: MTT test, 72 hrs
Description: as §1, §2

[3] = system: Hep 3B; assay: MTT cytotoxicity, Hep 3B (liver); format: cell-based, human; conditions: MTT test, 72 hrs
Description: as §1, §2

[4] = system: G361; assay: MTT cytotoxicity, G361 (skin); format: cell-based, human; conditions: MTT test, 72 hrs
Description: as §1, §2

[5] = system: IGROV1; assay: MTT cytotoxicity, IGROV1 (ovary); format: cell-based, human; conditions: MTT test, 72 hrs
Description: as §1, §2

[6] = system: Huh-7; assay: MTT cytotoxicity, Huh-7 (liver); format: cell-based, human; conditions: MTT test, 72 hrs
Description: as §1, §2

[7] = system: human ovarian adenocarcinoma cells sensitive (A2780); assay: Cross resistance MTT test, A2780 (CDDP sensitive); format: cell-based; conditions: 72 h, probit analysis
[8] = system: U-2 OS; assay: MTT cytotoxicity, U-2 OS (bone); format: cell-based, human; conditions: MTT test, 72 hrs
Description: as §1, §2

[9] = system: H157; assay: MTT cytotoxicity, H157 (lung); format: cell-based, human; conditions: MTT test, 72 hrs
Description: as §1, §2

[10] = system: A2780; assay: MTT cytotoxicity, A2780 (ovary); format: cell-based, human; conditions: MTT test, 72 hrs
Description: as §1, §2

[11] = system: C-32; assay: MTT cytotoxicity, C-32 (skin); format: cell-based, human; conditions: MTT test, 72 hrs
Description: as §1, §2

[12] = system: U1810; assay: MTT cytotoxicity, U1810 (lung); format: cell-based, human; conditions: MTT test, 72 hrs
Description: as §1, §2

[13] = system: PC-3; assay: MTT cytotoxicity, PC-3 (prostate); format: cell-based, human; conditions: MTT test, 72 hrs
Description: as §1, §2

[14] = system: Lewis lung carcinoma (LLC); assay: Early-stage treatment of LLC-bearing mice; format: in vivo, C57BL mice; conditions: for Average tumor weight (mean ± S.D.) / Inhibition of tumor growth: early-stage; for Average tumor weight (mean ± S.D.): day 15; for Inhibition of tumor growth: day 15, referred to control
Protocol: Body weight was measured every two days and was taken as a parameter of systemic toxicity. The X axis indicates the days after transplantation whereas the Y axis indicates the percentage of body weight changes. […] The error bars indicate the SD.
The antitumor efficacy of CP was evaluated in a model of solid tumor, the syngeneic murine Lewis Lung Carcinoma (also indicated as LLC). […] Body weight of tumor-bearing mice has been measured every two days simultaneously with antitumor analyses and was taken as a parameter of systemic toxicity.
LLC was implanted intramuscularly (i.m., 2×10^6 cells inoculum) into the right hind leg of 8-week old inbred C57BL mice (24±3 g body weight) and, after 24 h from tumor implantation, mice were randomly divided into five groups (8 animals per group, 10 controls). CP was dosed at 25, 35 and 50 mk/kg i.p. on days 3, 5, 7, 9, 11 and 13 after tumor implantation. […] At day 15, animals were sacrificed, and the inhibition of tumor growth was evaluated.

[15] = system: C57BL mice; assay: Acute toxicity tests in healthy C57BL mice; format: in vivo; conditions: observed 24 hrs
Protocol: (§3) The acute toxicity was assessed by treating BALB/c or C57BL mice with a single intraperitoneal (i.p.) or endovenous (e.v.) administration of different amounts, i.e. 3.125, 6.25, 12.5, 25, 50, 100 and 200 mg/kg of tested compounds.
(§4) To preliminarily establish the toxicity profile of CP, acute and repeat-dose toxicity studies were performed in BALB/c mice and in C57BL mice.

[16] = system: L1210 murine leukemia; assay: Antitumor efficacy in murine leukemia; format: in vivo; conditions: established animal leukaemia
Protocol: The detection of drug uptake by tumor cells in animal models clearly attest that CP efficiently and selectively accumulates in the solid tumor mass.
The antitumor efficacy of CP was evaluated in L1210 murine leukemia and in mouse Lewis Lung carcinoma (LLC).

[17] = system: BALB/c mice; assay: Acute toxicity tests in healthy BALB/c mice; format: in vivo; conditions: for LD50: BALB/c mice, observed 24 hrs
Protocol: as §3, §4

[18] = system: CDDP resistant and OXP resistant human cancer cells
[19] = system: human colon adenocarcinoma cells resistant (HCT-116 OXP) to OXP
[20] = system: human cancer cell lines derived from solid tumors; assay: MTT cytotoxicity, whole panel of human solid tumor cell lines; format: cell-based; conditions: Table 1 panel, maximum
Description: as §1, §2
In colon, liver, brain, ovary and prostate cell line panels IC50 values in the submicromolar range have been obtained.

[21] = 1.5 mg/kg ip days 3, 5, 7, 9, 11, 13
[22] = 35 mg/kg ip days 3, 5, 7, 9, 11, 13
[23] = 50 mg/kg ip days 3, 5, 7, 9, 11, 13

Structure (SMILES) | IC50 [1] [nM] | IC50 [2] [nM] | IC50 [3] [nM] | IC50 [4] [nM] | IC50 [5] [nM] | IC50 [6] [nM] | IC50 [7] [nM] | IC50 [8] [nM] | IC50 [9] [nM] | IC50 [10] [nM] | IC50 [11] [nM] | IC50 [12] [nM] | IC50 [13] [nM] | also measured
N.N.[Cl][Pt][Cl] [CDDP, cis-diamminodichloro platinum(II)] | 11500 ± 2510 | 9810 ± 1380 | 6150 ± 1480 | 1320 ± 1010 | 6010 ± 1730 | 3240 ± 960 | 2430 ± 1600 | 5150 ± 1940 | 5990 ± 2710 | 1250 ± 1010 | 1060 ± 980 | 3240 ± 1920 | 1570 ± 1130 | body weight loss ([14]; early-stage LLC mice, 1.5 mg/kg, after the sixth administration (FIG. 1)): about 30%; Average tumor weight (mean ± S.D.) [14, 21]: 0.168 ± 0.10 g; Inhibition of tumor growth [14, 21]: 73.66%
F[P-](F)(F)(F)(F)F.OC[P+](CO)(CO)[Cu-3]([P+](CO)(CO)CO)([P+](CO)(CO)CO)[P+](CO)(CO)CO [CP, [Cu(thp)4][PF6]] | 1340 ± 1110 | 2430 ± 840 | 670 ± 470 | 980 ± 120 | 910 ± 940 | 760 ± 310 | 1800 ± 400 | 1340 ± 920 | 1510 ± 660 | 990 ± 420 | 560 ± 430 | 760 ± 1020 | 980 ± 970 | LD50 ([15]; single e.v. administration): 115^b mg/kg; LD50 ([15]; single i.p. administration): 125^a mg/kg; antitumor efficacy against animal leukaemia [16]: failed to show significant antitumor efficacy; LD50 relative to that recorded with CDDP ([17]; BALB/c and C57BL mice (Table 5)): about one order of magnitude higher; LD50 ([17]; single e.v. administration): 135^b mg/kg; LD50 ([17]; single i.p. administration): 150^a mg/kg; IC50 fold lower than the reference metallodrugs ([18]; Table 2 cell lines, maximum): up to 15 fold; antitumor activity levels on sensitive versus resistant cell lines ([18]; sensitive and resistant cell line pairs): very similar; IC50 ([19]; HCT-116 OXP (OXP resistant), MTT test, 72 h, probit analysis): 1900 ± 700 nM; R.F. (Resistant factor) ([19]; IC50 resistant/parent line: HCT-116 OXP / HCT-116): 1.4; fold more cytotoxic than CDDP [20]: up to 50 fold; fold more cytotoxic than OXP [20]: ≤ 30 fold; body weight loss compared with the non-treated group ([14]; early-stage LLC mice, even at the highest doses (FIG. 1)): no significant body weight loss; Average tumor weight (mean ± S.D.) ([14]; 25 mg/kg ip days 3, 5, 7, 9, 11, 13): 0.473 ± 0.12 g; Inhibition of tumor growth ([14]; 25 mg/kg ip days 3, 5, 7, 9, 11, 13, 25 mg/kg): 26% and 25.86%; Average tumor weight (mean ± S.D.) [14, 22]: 0.273 ± 0.04 g; Inhibition of tumor growth [14, 22]: 57.21%; Average tumor weight (mean ± S.D.) [14, 23]: 0.113 ± 0.04 g; Inhibition of tumor growth [14, 23]: 82.28%
